Results taken from patent US20130178454A1, “COMBINATION OF TESTOSTERONE AND ORNITHINE DECARBOXYLASE (ODC) INHIBITORS” (priority 2011, published 2013).
Entries after “also recorded” stand apart in the source; their conditions may differ.

Columns and labels:
[1] = system: PCNA expression in the prostate epithelial cells; assay: PCNA expression in prostate epithelial cells (FIG. 7C); format: cell-based; details: follistatin 1 ng/ml and 5 ng/ml, DHT 10 nM
castrated C57BL/6 mice = assay: Prostate and levator ani muscle weights in castrated mice treated with testosterone or testosterone plus DFMO (FIG. 9); format: in vivo
Excerpt: Shown is a histogram showing prostate weights and levator ani muscle weights in vehicle-treated intact C57BL/6 mice, and castrated mice treated with vehicle, testosterone, or testosterone plus an ODC inhibitor DFMO.

castrated (CX) mice = assay: Histologic sections of the prostate in castrated mice (FIG. 7A); format: in vivo
[2] = system: ornithine decarboxylase (ODC) and polyamine pathway in the prostate; assay: Microarrays of prostate RNA from castrated mice treated with follistatin or testosterone (FIG. 8); format: in vivo; details: microarray
Excerpt: FIG. 8A is a schematic of microarray experiments to identify testosterone-selective signalling pathways in the prostate which are not activated by follistatin (Fst), and identify genes which are follistatin sensitive and those which are testosterone sensitive. Adult male mice were either sham-castrated or castrated under ketamine-xylazine anesthesia and treated with vehicle (sham), follistatin or testosterone. RNA was extracted from the prostate and levator ani muscle and subjected to microarrays. […] Shown in the box is the region of highly differentially expressed genes between the follistatin (Fst/CX) and testosterone (Tes/CX) treated mice.
Using microarrays, the inventors elucidated the signaling pathways that are differentially activated in the skeletal muscle and prostate by each of testosterone and follistatin, and assessed the pathways that are specifically activated in the prostate by testosterone, but were not follistatin (FIG. 8A-8B). The inventors determined that testosterone and follstatin both activate common signaling pathways that mediate their anabolic effects on the skeletal muscle, and specifically assessed if testosterone activates one or more unique signaling pathways in the prostate that are not activated by follistatin.

C3H 10T1/2 cells = details: 100 nm testosterone, 0.5 μg/ml anti-Fst antibody, rFst 0.2 μg/ml; cited from earlier work
[3] = system: Wnt target genes in 3T3-L1 cells; details: 3T3-L1 cells incubated with 100 nM testosterone; cited from earlier work
[4] = system: older men with low or low normal testosterone levels; details: testosterone versus placebo; cited from earlier work
[5] = cited from earlier work
[6] = system: PSA expression in the prostate epithelial cells; assay: PSA expression in prostate epithelial cells (FIG. 7B); format: cell-based; details: follistatin 1 ng/ml and 5 ng/ml, R1881 1 nM
ornithine decarboxylase = target: T1, ornithine decarboxylase (Homo sapiens, UniProt P11926); details: cited from earlier work
T1 sequence (P11926 1-461): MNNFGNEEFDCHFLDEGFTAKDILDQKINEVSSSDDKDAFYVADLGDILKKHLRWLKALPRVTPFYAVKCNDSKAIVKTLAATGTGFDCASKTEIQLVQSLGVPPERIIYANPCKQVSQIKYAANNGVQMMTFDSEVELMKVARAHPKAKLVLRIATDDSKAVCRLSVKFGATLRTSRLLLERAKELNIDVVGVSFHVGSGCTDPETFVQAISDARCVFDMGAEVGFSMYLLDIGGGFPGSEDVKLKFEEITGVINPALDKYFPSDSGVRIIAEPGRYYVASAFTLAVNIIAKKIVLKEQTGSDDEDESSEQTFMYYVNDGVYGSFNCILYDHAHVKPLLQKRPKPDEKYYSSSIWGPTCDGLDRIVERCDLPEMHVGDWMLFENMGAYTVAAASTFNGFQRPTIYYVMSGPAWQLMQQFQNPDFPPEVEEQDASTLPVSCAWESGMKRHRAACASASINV

[7] = system: carcinogen-induced cancer development; details: variety of rodent models; cited from earlier work
C57BL/6 mice = assay: Systemic follistatin treatment of mice: fat mass, lean mass, muscle and bone mass (FIG. 6); format: in vivo
LNCaP cells = assay: Proliferation of androgen-sensitive LNCaP cells in vitro; format: cell-based
[8] = mice in vivo, given with testosterone

C[C@]12CCC(=O)C[C@@H]1CC[C@@H]1[C@@H]2CC[C@]2(C)[C@@H](O)CC[C@@H]12 [DHT, Dihydrotestosterone]
PCNA expression [1]: upregulated PCNA expression

C[C@]12CC[C@H]3[C@@H](CCC4=CC(=O)CC[C@@]43C)[C@@H]1CC[C@@H]2O [testosterone, 17-β-hydroxyandrost-4-en-3-one]
levator ani muscle mass (levator ani muscle weights) (castrated C57BL/6 mice; castrated C57BL/6 mice): restored prostate as well as levator ani muscle mass | prostate mass (prostate weights) (castrated C57BL/6 mice; castrated C57BL/6 mice): restored prostate as well as levator ani muscle mass | prostate growth and prostate glands (castrated (CX) mice): restored prostate mass and growth of prostate glands | polyamine biosynthetic pathway / ODC gene expression in the prostate [2]: activated by testosterone in the prostate | polyamine biosynthetic pathway / ODC gene expression in the prostate ([2]; listed as Testosterone): upregulate several biosynthetic pathways including the polyamine biosynthetic pathway | myogenic differentiation of mesenchymal multipotent cells (C3H 10T1/2 cells): promotes myogenic differentiation; also recorded: stimulate myogenic differentiation | Fst, CD44 and Lef1 gene expression [3]: upregulation of Fst (follastin) and CD44 and Lef1 gene expression | fat mass [4]: reduces fat mass | lean body mass, muscle strength and bone mineral density [4]: improves lean body mass (LBM), a measure of muscle mass, muscle strength and bone mineral density (BMD) | testosterone circulating unbound to plasma proteins [5]: Less than 2.5%

C[C@]1(O)CC[C@H]2[C@@H]3CCC4=CC(=O)CCC4=C3C=C[C@@]21C [R1881]
PSA expression [6]: stimulates PSA expression

NCCCC(N)(C(=O)O)C(F)F (racemic) [DFMO, (RS)-2,5-diamino-2-(difluoromethyl)pentanoic acid]
effect of the ODC inhibitor on testosterone's anabolic effect on the muscle (castrated C57BL/6 mice; [8]): did not block testosterone's effect on the muscle; also recorded: maintaining muscle anabolic effects of testosterone | effect of the ODC inhibitor on testosterone-induced prostate growth (castrated C57BL/6 mice; [8]): blocks testosterone's effects on the prostate; also recorded: suppresses testosterone-induced prostate growth in vivo | inhibition of ornithine decarboxylase (ornithine decarboxylase): potent inhibitor of ornithine decarboxylase | carcinogen-induced cancer development [7]: inhibit carcinogen-induced cancer development

B1: follistatin: an endogenous protein that increases muscle mass; recombinant Fst protein (protein, UniProt P19883 30-344, looked up)
Follistatin: GNCWLRQAKNGRCQVLYKTELSKEECCSTGRLSTSWTEEDVNDNTLFKWMIFNGGAPNCIPCKETCENVDCGPGKKCRMNKKNKPRCVCAPDCSNITWKGPVCGLDGKTYRNECALLKARCKEQPELEVQYQGRCKKTCRDVFCPGSSTCVVDQTNNAYCVTCNRICPEPASSEQYLCGNDGVTYSSACHLRKATCLLGRSIGLAYEGKCIKAKSCEDIQCTGGKKCLWDFKVGRGRCSLCDELCPDSKSDEPVCASDNATYASECAMKEAACSSGVLLEVKHSGSCNSISEDTEEEEEDEDQDYSFPISSILEW
fat mass (C57BL/6 mice; castrated mice): reduces fat mass | muscle and bone mass (C57BL/6 mice; castrated mice): increases muscle and bone mass | lean body mass, measured by NMR (C57BL/6 mice; mice, 13 weeks systemic administration of 0, 10, 30 and 100 μg recombinant follistatin): increased dose-dependently | fat mass, expressed as a percent of body weight (C57BL/6 mice; mice, 13 weeks systemic administration of 10, 30 and 100 μg follistatin): fat mass is decreased | prostate growth and prostate glands (castrated (CX) mice): does not stimulate prostate growth; also recorded: did not stimulate prostate growth or glands | PSA expression [6]: nor does it up regulate PSA expression; also recorded: does not stimulate PSA expression | proliferation of androgen-sensitive LNCaP cells (LNCaP cells): does not up stimulate the proliferation | polyamine biosynthetic pathway / ODC gene expression in the prostate [2]: not upregulated | myogenic differentiation of mesenchymal multipotent cells (C3H 10T1/2 cells): stimulate myogenic differentiation
